The text below walks through data of patent US12692259B2, “Morpholine-containing and piperazine-containing CXCR4 modulators and uses related thereto” (Emory University, priority 2021, dated 2026).

Molecules are shown by their SMILES.

For one data set, the target named is CYP450 isoforms 3A4 (Homo sapiens, UniProt P08684). The settings on record: cited from earlier work.
Another data set concerns the target CYP450 isoforms 2D6 (Homo sapiens, UniProt P10635). The settings on record: cited from earlier work.
For the next data set, the target named is T1, CYP3A4 (Homo sapiens, UniProt P08684).
T1 construct: purchased Corning; host or cells: insect cells (microsomes)
T1 sequence (P08684 whole entry): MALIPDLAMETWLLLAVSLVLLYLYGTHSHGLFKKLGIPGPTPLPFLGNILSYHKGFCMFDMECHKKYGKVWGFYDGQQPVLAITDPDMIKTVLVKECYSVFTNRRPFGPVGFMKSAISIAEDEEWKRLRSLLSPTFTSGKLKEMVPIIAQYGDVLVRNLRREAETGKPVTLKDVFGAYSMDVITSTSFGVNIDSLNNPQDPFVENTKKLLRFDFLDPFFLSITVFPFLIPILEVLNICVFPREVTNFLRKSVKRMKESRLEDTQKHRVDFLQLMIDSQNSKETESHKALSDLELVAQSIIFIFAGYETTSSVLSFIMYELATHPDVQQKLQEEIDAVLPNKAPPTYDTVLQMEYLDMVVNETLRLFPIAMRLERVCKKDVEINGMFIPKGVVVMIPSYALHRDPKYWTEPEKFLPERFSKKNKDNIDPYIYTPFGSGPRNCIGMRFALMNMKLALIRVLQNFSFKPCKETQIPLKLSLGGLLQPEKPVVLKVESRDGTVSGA
The data set is described as follows: Fluorometric CYP450 inhibition assay, CYP3A4. The class given is in vitro ADME. Particulars: read-out: CYP450 IC50 (μM) 3A4. As to the method:
(§1) The CYP450 inhibition assays utilized microsomes from insect cells expressing human recombinant individual cDNA-expressed CYP isoforms 3A4 and 2D6, as well as the fluorogenic probe that produces fluorescent metabolite. Standard inhibitors were co-incubated with fluorogenic substrates and their inhibitory potential (IC50) was determined. Assay conditions in terms of CYP450 protein concentration and time of incubation were standardized, enzyme kinetics parameters of each fluorescent probe substrate were estimated and IC50 values of inhibitors were determined and validated on different days to check reproducibility.
(§2) A 100 mM sodium phosphate buffer was prepared and adjusted to pH 7.4. In a separate falcon tube, a 2× enzyme/substrate (E/S) solution was prepared in phosphate buffer. The final concentration of CYP2D6 (CORNING®) and 7-amido-4-methyl coumaric acid (AMMC) was 10 nM and 4 μM, and CYP3A4 (CORNING®) and 7-benzyloxy-4-(trifluoromethyl) coumarin (BFC) was 20 nM and 40 μM, respectively. In a separate falcon tube, a 2×NADPH regenerating system (NRS) was prepared in phosphate buffer.
(§3) Both enzymatic assays were conducted in a 96-well microtiter plate (Black, CORNING® COSTAR®) with a final volume of 100 μL. Preparation of the plate began with the addition of 74 μL of the E/S in the first well, and 50 μL to all subsequent wells (from 2-11). […] A 1:3 serial dilution of the test compound was conducted by removing 25 μL from the first well and diluting it with the second and so forth until the tenth row. Final concentrations yielded a range from 200 μM-0.01 μM. Well no. 11 contained no inhibitor, and well no. 12 contained no enzyme. Both were used as controls for background fluorescence. The plate was incubated for 30 min at 37° C. After incubation, the reaction was initiated by the addition of 50 μL of the 2×NRS to each well.
(§4) Immediately (within 1 min) the fluorescence was measured using a microplate reader (BIOTEK® Synergy Neo2). […] Data was exported and analyzed using Graph Pad Prism 7. […] The IC50 value was derived after the data was fitted on a 10-point curve using a four-parameter logistic regression model.

For another data set, the target named is T2, CYP2D6 (Homo sapiens, UniProt P10635).
T2 construct: purchased Corning; host or cells: insect cells (microsomes)
T2 sequence (P10635 whole entry): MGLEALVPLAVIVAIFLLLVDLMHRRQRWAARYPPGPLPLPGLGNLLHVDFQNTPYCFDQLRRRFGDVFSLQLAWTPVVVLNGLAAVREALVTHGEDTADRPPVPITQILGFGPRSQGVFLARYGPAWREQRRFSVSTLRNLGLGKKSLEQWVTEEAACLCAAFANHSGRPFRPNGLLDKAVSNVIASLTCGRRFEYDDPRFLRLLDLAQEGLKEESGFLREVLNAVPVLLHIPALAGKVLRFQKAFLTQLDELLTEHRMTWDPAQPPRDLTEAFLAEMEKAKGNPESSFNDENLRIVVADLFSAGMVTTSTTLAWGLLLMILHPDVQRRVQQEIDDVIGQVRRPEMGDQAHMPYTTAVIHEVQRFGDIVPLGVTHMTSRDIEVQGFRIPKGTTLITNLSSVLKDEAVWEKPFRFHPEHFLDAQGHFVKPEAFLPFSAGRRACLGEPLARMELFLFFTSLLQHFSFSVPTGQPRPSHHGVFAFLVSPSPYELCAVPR
The data set is described as follows: Fluorometric CYP450 inhibition assay, CYP2D6. The class given is in vitro ADME. The settings on record: read-out: CYP450 IC50 (μM) 2D6. As to the method: as §1, §2, §3, §4

Data set [1] in a line: Metabolic stability assay, human liver microsomes (HLM). The class given is in vitro ADME. The settings on record: 10 min. The text has this:
Controls were processed and analyzed like the test compounds.

The nature of the next data set: in vitro. Particulars: mouse, 10 min, 3 µM, pH 7.4. As for the experimental part:
Metabolic stability assay was performed at Emory University's Department of Chemistry or by Bristol Myers Squibb. The method used by Emory University's Department of Chemistry is described below.
Each method was developed in the presence of an internal standard (ISTD) d5-7-ethoxy coumarin. The column temperature was maintained at 40° C. for most of the samples otherwise noted. The detection was operated in the Agilent JetStream electrospray positive ionization using multiple reaction monitoring mode (MRM).
Other MS conditions were as follows: dwell time 100 ms; gas flow 10 L/min; nebulizer pressure 45 psi; delta EMV 200 V; fragmentor voltage and collision energy for individual compounds vary.
Test compounds were dissolved in 100% DMSO or 100% MeOH to make 10 mM stock solutions. Verapamil (Sigma Aldrich) aided as a positive control and was dissolved in 100% DMSO to make 10 mM stock solutions. The 10 mM stock solution of test and control compounds were further diluted in potassium phosphate buffer (100 mM, pH 7.4) to 500 μM to ensure the organic solvent content was <0.2%. Human liver microsomes (HLMs) were purchased from Xenotech at 20 mg/mL. NADPH (Sigma Aldrich) 10 mM stocks were prepared in deionized water.
The HLM assay was prepared in a 1.5 mL Eppendorf tube with a final volume of 1100 μL for duplicate runs. Each reaction contained phosphate buffer (928.4 μL), liver microsomes (55 μL), and test compound resulting in a final concentration of 3 μM (6.6 μL of 500 μM). The reaction was initiated with 110 μL of 10 mM NADPH. […] Before centrifugation each of the aliquoted tubes were vortexed to make sure compounds were in the solution. The aliquots were centrifuged at 12,000 g for 5 min and the supernatant removed and placed in an LC-MS vial. Each time point was assessed using LC-MS and the area, based on the extracted ion, was integrated with respect to the ISTD. […] A no-NADPH negative control with test or control compound was performed in a single run (150 μL) at the longest time point. Controls were processed and analyzed like the test compounds. Each time point was run in duplicates followed by in-between blank washes to avoid the carryover and to equilibrate the column.
The MLM assay was performed using the same procedures as those described above for the HLM assay.

The nature of another data set: PAMPA assay. The class given is in vitro ADME. The settings on record: pH 7.4. As for the experimental part: PAMPA assay was performed by BioAssay Systems Services or Bristol Myers Squibb. The method used by BioAssay Systems Services is described below.
Stock solutions in DMSO for all compounds (10 mM) were thawed. The assay was performed in duplicate by following the PAMPA-096 procedure for sample plating. 4% Lecithin in dodecane solution was prepared by resuspending the dried lecithin with 750 μL dodecane. PBS pH 7.4 was used as the diluent. Two sets of plates and equilibrium solutions were incubated for 4 hours at room temperature. Acceptor and equilibrium solutions were analyzed in a UV plate. OD280 nm was used for High Permeability Control (chloramphenicol). OD270 nm was used for Medium Permeability Control (diclofenac) and Low Permeability Control (theophylline). OD254 nm was used for the test compounds.
Data analysis was performed by using the peak absorbance for each respective test compound and Permeability Control to determine the Permeability Rate (Pe) via the following equation: […]
where ODA is the absorbance of Acceptor Solution, ODE is the absorbance of the Equilibrium Standard, and C is determined by the equation below: […]
where Donor Volume (VD) is 0.2 cm^3, Acceptor Volume (VA) is 0.3 cm^3, and Membrane Area (Area) is 0.24 cm^2.
(In general: In PAMPA a lipid-coated filter parts donor from acceptor wells.)

The target in data set [2] is T3, CXCR4 (Homo sapiens, UniProt P61073). The data set is described as follows: Calcium flux assay (antagonist mode, SDF-1α challenge). It is filed as cell-based. Further details: Eurofins or Bristol Myers Squibb (contract assay). The settings on record: read-out: CXCR4 Ca^+2 Flux IC50. As for the experimental part: Calcium flux assay was performed by Eurofins or Bristol Myers Squibb. The method used by Eurofins is described below.
T3 sequence (P61073 whole entry): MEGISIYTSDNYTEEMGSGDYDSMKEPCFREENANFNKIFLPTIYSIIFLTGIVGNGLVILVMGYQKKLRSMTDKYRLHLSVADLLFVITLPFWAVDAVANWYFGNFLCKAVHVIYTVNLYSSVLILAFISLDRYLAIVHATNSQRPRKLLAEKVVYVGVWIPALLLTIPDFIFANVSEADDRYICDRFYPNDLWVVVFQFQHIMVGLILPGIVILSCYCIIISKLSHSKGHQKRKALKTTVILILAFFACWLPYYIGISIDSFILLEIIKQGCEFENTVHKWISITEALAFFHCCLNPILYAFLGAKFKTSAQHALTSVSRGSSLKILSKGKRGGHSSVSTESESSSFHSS
Compound plate preparation: Vehicle controls and positive controls were prepared to ensure all assays were properly controlled. All wells were prepared using the Eurofins Discovery Services GPCRProfiler® Assay Buffer. The GPCRProfiler® Assay Buffer was a modified Hanks Balanced Salt Solution (HBSS) where HBSS was supplemented to contain 20 mM HEPES and 2.5 mM Probenecid at pH 7.4.
Agonist assay (first addition): Compound(s) supplied were plated in duplicate for each concentration assayed. During the agonist assay, the concentration(s) reflects accommodation for the dilution of compound during the antagonist assay. Please see below for further details. […] The reference agonist for each GPCR was included at Emax (the concentration where the reference agonist elicited a maximal response). The agonist assay was conducted on a FLIPR^TETRA instrument where the test compound(s), vehicle controls, and reference agonist were added to the assay plate after a fluorescence/luminescence baseline was established. The agonist assay was a total of 180 seconds and was used to assess each compound's ability to activate each GPCR assayed. Upon completion of the three minute agonist assay, the assay plate was incubated at 25° C. for a further two minutes. After the incubation period the antagonist assay was initiated.
The antagonist assay was conducted using the same assay plate that was used for the agonist assay. The antagonist assay was conducted on a FLIPR^TETRA instrument where vehicle controls and challenge concentration of reference agonist were added to appropriate wells. The antagonist assay was a total of 180 seconds and was used to assess each compound's ability to inhibit each GPCR assayed.
Data Processing—All plates were subjected to appropriate baseline corrections. Once baseline corrections were processed, maximum fluorescence/luminescence values were exported, and data manipulated to calculate percentage activation and percentage inhibition. […] Data manipulation calculation is as followed: ((Max RLU)−(Baseline Avg.))/((Positive Avg.)−(Baseline Avg.)).

Data set [3] concerns the target T3, CXCR4. The data set is described as follows: cAMP assay in CXCR4-CHO-Glo cells (GloSensor, forskolin + SDF-1α). The class given is cell-based. Further details: expressed in transfected cells. The text has this: Materials, reagents, and instrument—Advanced DMEM (Gibco), trypsin EDTA (0.05%, phenol red), L-glutamine, HBSS buffer with and without Ca^2+/Mg^2+ (Gibco), antibiotic-antimycotic (Gibco), hygromycin B, and geneticin selective antibiotic (G418 sulfate) were purchased from Invitrogen. Forskolin (Tocris), SDF-1α (R&D Systems), HEPES (Sigma Aldrich), FBS (Atlanta Biologicals), D-luciferin (Gold Biotechnology), sterile 60 mm tissue culture dishes, and 96-well sterile tissue culture plates were purchased from Corning.
The assay targeted CXCR4 expressed in CHO-gloSensor cells. It monitored GPCR activation based on forskolin-stimulated cAMP production in cells. The assay used a genetically encoded biosensor with its cAMP binding domain fused to luciferase. Binding of cAMP to the cAMP binding domain changed the conformation of the biosensor, leading to the activation of luciferase. The intensity of the luciferase signal (light output) resulted from the oxidation of D-luciferin to oxyluciferin is proportional to the amount of cAMP produced in the cells.
The assay was performed in triplicate using live cells in 96-well tissue culture plates. Cells were pre-incubated in the dark at room temperature for one hour in the presence of D-luciferin. Bioluminescence was quantified before and after the agonist/antagonist addition. Stock solution of forskolin and SDF-1a, was prepared in Locke-Luc buffer. Stock solutions of the test compounds were prepared in DMSO (10 mM); they were diluted by Locke's buffer for use in the assay.
CHO-Glo cells, a cell line stably expressing the GloSensor cAMP biosensor (Promega), were transfected with cDNA encoding human CXCR4 in Pires-AcGFP1 (Clontech) and a stable cell line was isolated (CXCR4-CHO-Glo cells). The CXCR4-CHO-Glo cells were grown to confluency on 60 mm tissue culture dishes. After trypsinization, the cells were plated on 96-well plates and incubated overnight. The next day, culture media in each well was aspirated and replaced with 100 μL Locke's buffer containing 4 mM D-luciferin, followed by incubation in the dark for one hour. Before the addition of agonist/antagonist, each plate was read five times at 2 min intervals to obtain basal bioluminescence values from each well. The average of these five pre-readings was used to normalize each well's response to account for differences in GloSensor expression and cell density. After five pre-readings, cAMP formation was initiated with the addition of 50 μL solution of test compound (TC) in Locke Luc buffer containing forskoline and SDF-1α. […] Luminescence was measured immediately after the addition of the antagonist solution. The measurements were taken every two minutes for 30 minutes in kinetics mode after antagonist addition. IC50 values were calculated from the 4-parameter logistic equation using Prism GraphPad.

CYP450 isoforms 2D6, sequence (P10635 whole entry, canonical isoform): as the sequence (P10635 whole entry) above
CYP450 isoforms 3A4, sequence (P08684 whole entry, canonical isoform): as the sequence (P08684 whole entry) above

Consider `NCCCCN(Cc1nc2ccccc2[nH]1)[C@H]1CCCc2cccnc21` [AMD11070, mavorixafor], for which the “inhibition of CYP450 isoform 3A4” value at CYP450 isoforms 3A4 was “significant inhibition”. The “inhibition of CYP450 isoform 2D6” value at CYP450 isoforms 2D6 was “significant inhibition”.

The term IC50 denotes the concentration that inhibits the measured activity by half. By Papp is commonly meant a coefficient for how fast a substance crosses the barrier. Lower therefore signals poor permeation. `c1ccc2c(c1)CN[C@@H](CN(CCCCN1CCOCC1)[C@H]1CCCc3cccnc31)C2` [EMU-178]: the concentration for half-maximal inhibition (IC50) at CYP3A4 is above 20 µM; on CYP2D6, 0.44 µM; at CXCR4 [2], 82.5 nM. Further, in [1], the “Liver Microsomes % rem. @ 10 min. H” value stood at 52.6%. Also, the “Liver Microsomes % rem. @ 10 min. M” value in “in vitro” is listed as 3.68%. Besides, in the data set “PAMPA assay”, the Papp at 4 h amounted to 21.2 ×10⁻⁶ cm/s.

Turning to `c1cnc2c(c1)CN[C@H](CN(CCCCN1CCOCC1)[C@@H]1CCCc3cccnc31)C2` [EMU-204, (R)—N-(4-morpholinobutyl)-N—(((S)-5,6,7,8-tetrahydro-1,6-naphthyridin-7-yl)methyl)-5,6,7,8-tetrahydroquinolin-8-amine], the half-maximal inhibitory concentration (IC50) on CYP3A4 is above 20 µM; on CYP2D6, above 20 µM; at CXCR4 [2] it was 270 nM. The “Liver Microsomes % rem. @ 10 min. H” value in [1] worked out at 100%. Also, the “Liver Microsomes % rem. @ 10 min. M” value in the data set “in vitro” came to 19.6%. Further, the apparent permeability coefficient (Papp) at 4 h in the data set “PAMPA assay” stood at 21.5 ×10⁻⁶ cm/s.

As for `CN(C[C@H]1Cc2c(cccc2N2CCN(C(=O)OCc3ccccc3)CC2)CN1)[C@H]1CCCc2cccnc21` [EMU-291], the IC50 was above 20 µM at CYP3A4, above 20 µM at CYP2D6 and 2320 nM on CXCR4 [3]. In addition, in data set [1], the “Liver Microsomes % rem. @ 10 min. H” value is given as 35.6%. Also, the “Liver Microsomes % rem. @ 10 min. M” value in “in vitro” is 66.4%.
